Reference: PubChem BioAssay AID2060621 (Molecular Pharmacology Branch, DTP, NCI, 2025)

Test system: 324938-238-R-J1-PDC complex spheroids viability
Assay: Anticancer human tumor 324938-238-R-J1-PDC patient-derived bladder carcinoma cell line growth inhibition [CLK]
Conditions: for IC50: curve of first compound; for viability, T/C: stronger effect = lower value
Method in brief: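 Multi-cell-type spheroids combined patient-derived tumor cells with HUVEC endothelial cells and human mesenchymal stem cells. Paired agents were dosed in half-log steps down from about clinical Cmax, or from 10 microM where Cmax was unknown.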

[1] = second compound 0.0316 µM, first compound 0.0316 µM
[2] = second compound 0.0316 µM, first compound 0.1 µM
[3] = second compound 0.1 µM, first compound 0.0316 µM
[4] = second compound 0.1 µM, first compound 0.1 µM
[5] = second compound 0.316 µM, first compound 0.0316 µM
[6] = second compound 0.316 µM, first compound 0.1 µM
[7] = second compound 1 µM, first compound 0.0316 µM
[8] = second compound 1 µM, first compound 0.1 µM
[9] = second compound 3.16 µM, first compound 0.0316 µM
[10] = second compound 3.16 µM, first compound 0.1 µM
[11] = second compound 10 µM, first compound 0.0316 µM
[12] = second compound 10 µM, first compound 0.1 µM
[13] = second compound 0.0316 µM, first compound 0.316 µM
[14] = second compound 0.0316 µM, first compound 1 µM
[15] = second compound 0.0316 µM, first compound 3.16 µM
[16] = second compound 0.0316 µM, first compound 10 µM
[17] = second compound 0.1 µM, first compound 0.316 µM
[18] = second compound 0.1 µM, first compound 1 µM
[19] = second compound 0.1 µM, first compound 3.16 µM
[20] = second compound 0.1 µM, first compound 10 µM
[21] = second compound 0.316 µM, first compound 0.316 µM
[22] = second compound 0.316 µM, first compound 1 µM
[23] = second compound 0.316 µM, first compound 3.16 µM
[24] = second compound 0.316 µM, first compound 10 µM
[25] = second compound 1 µM, first compound 0.316 µM
[26] = second compound 1 µM, first compound 1 µM
[27] = second compound 1 µM, first compound 3.16 µM
[28] = second compound 1 µM, first compound 10 µM
[29] = second compound 3.16 µM, first compound 0.316 µM
[30] = second compound 3.16 µM, first compound 1 µM
[31] = second compound 3.16 µM, first compound 3.16 µM
[32] = second compound 3.16 µM, first compound 10 µM
[33] = second compound 10 µM, first compound 0.316 µM
[34] = second compound 10 µM, first compound 1 µM
[35] = second compound 10 µM, first compound 3.16 µM
[36] = second compound 10 µM, first compound 10 µM
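Also: viability read after seven days of drug exposure.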
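For viability, T/C in this document: 100% = DMSO vehicle control wells.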

Cn1ncnc1[C@H]1c2n[nH]c(=O)c3cc(F)cc(c23)N[C@@H]1c1ccc(F)cc1 + CN1CCN(c2cc(C(=O)Nc3cc4cc(-c5cnn(C)c5)ccc4cn3)ccn2)CC1
IC50 (second compound 0.0316 µM): 8.66 nM
IC50 (second compound 0.1 µM): 1.53 nM
IC50 (second compound 0.316 µM): < 0.316 nM
IC50 (second compound 1 µM): < 0.316 nM
IC50 (second compound 3.16 µM): < 0.316 nM
IC50 (second compound 10 µM): < 0.316 nM
viability, T/C (second compound 0.0316 µM, first compound 0.000316 µM): 78%
viability, T/C (second compound 0.0316 µM, first compound 0.001 µM): 74%
viability, T/C (second compound 0.0316 µM, first compound 0.00316 µM): 58.2%
viability, T/C (second compound 0.0316 µM, first compound 0.01 µM): 51.9%
viability, T/C [1]: 32.5%
viability, T/C [2]: 24.4%
viability, T/C (second compound 0.1 µM, first compound 0.000316 µM): 57.5%
viability, T/C (second compound 0.1 µM, first compound 0.001 µM): 54.8%
viability, T/C (second compound 0.1 µM, first compound 0.00316 µM): 43.6%
viability, T/C (second compound 0.1 µM, first compound 0.01 µM): 32.7%
viability, T/C [3]: 27%
viability, T/C [4]: 19.8%
viability, T/C (second compound 0.316 µM, first compound 0.000316 µM): 23.8%
viability, T/C (second compound 0.316 µM, first compound 0.001 µM): 22.4%
viability, T/C (second compound 0.316 µM, first compound 0.00316 µM): 23.1%
viability, T/C (second compound 0.316 µM, first compound 0.01 µM): 21.2%
viability, T/C [5]: 18.5%
viability, T/C [6]: 15%
viability, T/C (second compound 1 µM, first compound 0.000316 µM): 0.86%
viability, T/C (second compound 1 µM, first compound 0.001 µM): 0.77%
viability, T/C (second compound 1 µM, first compound 0.00316 µM): 0.99%
viability, T/C (second compound 1 µM, first compound 0.01 µM): 0.51%
viability, T/C [7]: 0.6%
viability, T/C [8]: 1.4%
viability, T/C (second compound 3.16 µM, first compound 0.000316 µM): 0.15%
viability, T/C (second compound 3.16 µM, first compound 0.001 µM): 0.2%
viability, T/C (second compound 3.16 µM, first compound 0.00316 µM): 0.14%
viability, T/C (second compound 3.16 µM, first compound 0.01 µM): 0.09%
viability, T/C [9]: 0.12%
viability, T/C [10]: 0.14%
viability, T/C (second compound 10 µM, first compound 0.000316 µM): 0.07%
viability, T/C (second compound 10 µM, first compound 0.001 µM): 0.13%
viability, T/C (second compound 10 µM, first compound 0.00316 µM): 0.16%
viability, T/C (second compound 10 µM, first compound 0.01 µM): 0.12%
viability, T/C [11]: 0.12%
viability, T/C [12]: 0.19%

Nc1ccn(C2OC(CO)C(O)C2(F)F)c(=O)n1 (stereo unspecified) + CN1CCN(c2cc(C(=O)Nc3cc4cc(-c5cnn(C)c5)ccc4cn3)ccn2)CC1
IC50 (second compound 0.0316 µM): < 31.6 nM
IC50 (second compound 0.1 µM): < 31.6 nM
IC50 (second compound 0.316 µM): < 31.6 nM
IC50 (second compound 1 µM): < 31.6 nM
IC50 (second compound 3.16 µM): < 31.6 nM
IC50 (second compound 10 µM): < 31.6 nM
viability, T/C [1]: 31.4%
viability, T/C [2]: 16.4%
viability, T/C [13]: 11.3%
viability, T/C [14]: 11.3%
viability, T/C [15]: 6.96%
viability, T/C [16]: 6.17%
viability, T/C [3]: 25.3%
viability, T/C [4]: 14.2%
viability, T/C [17]: 11.5%
viability, T/C [18]: 10.8%
viability, T/C [19]: 5.43%
viability, T/C [20]: 4.89%
viability, T/C [5]: 18.9%
viability, T/C [6]: 12.7%
viability, T/C [21]: 10.2%
viability, T/C [22]: 8.86%
viability, T/C [23]: 5.88%
viability, T/C [24]: 1.97%
viability, T/C [7]: 0.83%
viability, T/C [8]: 0.6%
viability, T/C [25]: 0.57%
viability, T/C [26]: 0.45%
viability, T/C [27]: 0.37%
viability, T/C [28]: 0.22%
viability, T/C [9]: 0.13%
viability, T/C [10]: 0.16%
viability, T/C [29]: 0.15%
viability, T/C [30]: 0.12%
viability, T/C [31]: 0.14%
viability, T/C [32]: 0.19%
viability, T/C [11]: 0.11%
viability, T/C [12]: 0.12%
viability, T/C [33]: 0.19%
viability, T/C [34]: 0.12%
viability, T/C [35]: 0.17%
viability, T/C [36]: 0.16%

O=c1[nH]cc(F)c(=O)[nH]1 + CN1CCN(c2cc(C(=O)Nc3cc4cc(-c5cnn(C)c5)ccc4cn3)ccn2)CC1
IC50 (second compound 0.0316 µM): 236 nM
IC50 (second compound 0.1 µM): 94.2 nM
IC50 (second compound 0.316 µM): < 31.6 nM
IC50 (second compound 1 µM): < 31.6 nM
IC50 (second compound 3.16 µM): < 31.6 nM
IC50 (second compound 10 µM): < 31.6 nM
viability, T/C [1]: 74%
viability, T/C [2]: 72.8%
viability, T/C [13]: 42.1%
viability, T/C [14]: 20.4%
viability, T/C [15]: 23.9%
viability, T/C [16]: 19.1%
viability, T/C [3]: 61.5%
viability, T/C [4]: 48.2%
viability, T/C [17]: 36.4%
viability, T/C [18]: 22.6%
viability, T/C [19]: 18.2%
viability, T/C [20]: 18.1%
viability, T/C [5]: 23.1%
viability, T/C [6]: 23.9%
viability, T/C [21]: 20.6%
viability, T/C [22]: 18.9%
viability, T/C [23]: 16.8%
viability, T/C [24]: 17%
viability, T/C [7]: 0.71%
viability, T/C [8]: 1.08%
viability, T/C [25]: 0.67%
viability, T/C [26]: 0.81%
viability, T/C [27]: 0.77%
viability, T/C [28]: 1.58%
viability, T/C [9]: 0.09%
viability, T/C [10]: 0.15%
viability, T/C [29]: 0.1%
viability, T/C [30]: 0.11%
viability, T/C [31]: 0.08%
viability, T/C [32]: 0.19%
viability, T/C [11]: 0.07%
viability, T/C [12]: 0.12%
viability, T/C [33]: 0.13%
viability, T/C [34]: 0.09%
viability, T/C [35]: 0.1%
viability, T/C [36]: 0.19%
